In patent US10959966B2, “Compositions and methods for modulating HEXM1 expression” (CASE WESTERN RESERVE UNIVERSITY, priority 2014, dated 2021):

Legend:
[1] = test system: p21 expression in prostate cancer LNCaP cells; test: p21 expression by western blot, LNCaP cells; format: cell-based; settings: 5 mM HMBA or 50 μM 4a1, 18 hours
Method: (§1) FIGS. 7(A-B) illustrate Western blots showing (A) MCF7 (control siRNA or HEXIM1 siRNA) and (B) LNCaP (control shRNA or HEXIM1 shRNA) cells treated with vehicle (DMSO), 5 mM HMBA, or 50 μM 4a1 for 18 hours.
(§2) Cell lysates were analyzed by western blot as previously described. Anti-HEXIM1 was generated in the Montano laboratory. Primary antibodies against p21 (C-19; cat# sc-397), cyclin D1 (HD11; cat# sc-246) and myc (9E10; cat# sc-40) were obtained from Santa Cruz Biotechnology. Anti-GAPDH was obtained from Millipore. Anti-HIF-1α was obtained from Oxy-cell, Bioresearch).
(§3) HMBA was investigated in a Phase II clinical trial due to its potent anti-cancer and cell differentiation activities. Moreover, the roles of HMBA, and potentially 4a1, as differentiating factors are advantageous for their therapeutic use when compared to cytotoxic agents. […] We also examined the ability of 4a1 to induce differentiation and the relative role of HEXIM1.

[2] = test system: recruitment of CDK9 to HEXIM1 gene in MCF7 cells; test: ChIP assay, CDK9 recruitment to HEXIM1 gene, MCF7 cells; format: cell-based; settings: 5 mM HMBA or 50 μM 4a1, 90 minutes
Method: (§4) FIGS. 6(A-B) illustrate graphs showing HEXIM1 graphs showing HMBA and 4a1 induced recruitment of CDK9 to HEXIM1 promoter in MCF7 and LNCaP cells treated with 5 mM HMBA or 50 μM 4a1 for 90 minutes.
(§5) ChIP assays were carried out as previously described. Anti-CDK9 antibody (D-7; cat# sc-13130) was obtained from Santa Cruz Biotechnology.
(§6) The induction of HEXIM1 by HMBA appears to involve the release of free P-TEFb from 7SK snRNP, and recruitment of P-TEFb to HEXIM1 gene. P-TEFb is a heterodimer between the cyclin-dependent kinase 9 (Cdk9) and its regulatory subunit Cyclin T1 (CycT1). We thus determined the regulation of the recruitment of CDK9 to the HEXIM1 coding sequence by HMBA and 4a1.

[3] = administered in vivo; cited from earlier work
[4] = test system: triple negative MDA-MB-231 breast cancer cells; test: Nile red staining of lipid droplets (differentiation marker), MDA-MB-231 cells; format: cell-based; settings: 72 hours
Method: (§7) FIGS. 8(A-B) illustrate images showing (A) MCF7 cells transfected with control or HEXIM1 siRNA or (B) MDA-MB-231 transfected with control or HEXIM1 expression vector treated with vehicle (DMSO), HMBA, or 4a1 for 72 hours. Lower panels show Western blot analyses of HEXIM1 expression in MDA-MB-231 cells transfected with control or expression vector for Flag-tagged HEXIM1.
(§8) Cells were stained with Nile red for lipid droplets (marker of cell differentiation). Briefly, the stock solution of Nile red 1 mg/ml in acetone was diluted in PBS (1:1000). The fixed cells (4% paraformaldehyde) were incubated with diluted Nile red for 5 minutes at room temperature, rinsed with PBS and observed for the presence of lipid droplets by confocal microscopy. Images were digitally captured using a Leica microscope (Leica Microsystems Inc, IL, USA).

[5] = cited from earlier work
[6] = test system: tamoxifen resistant breast cancer line (MCF7/TOTR); test: MTT proliferation assay, sensitivity to trans-hydroxytamoxifen; format: cell-based; settings: 7 days, 5 mM HMBA or 50 μM 4a1
Method: (§9) FIGS. 9(A-B) illustrate a Western blot and plots showing HEXIM1 expression in MCF7 and MCF7(TOTR) cells in the presence of vehicle (DMSO), 5 mM HMBA or 50 μM 4a1.
(§10) MCF7, MDA-MB-231, and LNCaP cells were obtained from the American Tissue Culture Collection, and were maintained as previously described. Construction of expression vectors for control miRNA or HEXIM1 miRNAs were described previously. MCF7 or LNCaP cells were transfected with expression vectors containing either the HEXIM1 miRNA insert or a control miRNA insert as previously described. Following blasticidin selection, cells expressing the highest level of GFP were flow-sorted and expanded. […]
MCF7 cells were plated onto 96 well plates and treated with 17β-estradiol±trans-hydroxytamoxifen in the presence of DMSO (vehicle), HMBA or 4a1 for 7 days. Cell proliferation was assessed using the MTT based Cell Growth Determination Kit from Sigma-Aldrich according to the manufacturer's protocol.
(§11) We have reported that HEXIM1 is required for the ability of antiestrogens to inhibit the activity of the Estrogen Receptor, that loss of HEXIM1 results in agonistic activity of tamoxifen, and that recurrence after tamoxifen therapy can be correlated with loss of HEXIM1 expression in human breast tissue samples. Thus we determined if HMBA and 4a1 can enhance sensitivity to tamoxifen of a tamoxifen resistant breast cancer line (MCF7/TOTR). […]

[7] = test system: p21 expression in breast cancer MCF7 cells; test: p21 expression by western blot, MCF7 cells; format: cell-based; settings: 5 mM HMBA or 50 μM 4a1, 18 hours
Method: as §1, §2, §3

[8] = in vivo; cited from earlier work
[9] = test system: HEXIM1 targets in MCF7 cells; test: Western blot of HEXIM1 targets in MCF7 cells; format: cell-based; settings: 5 mM HMBA or 50 uM 4a1, 18 h, relative to GAPDH
Method: FIG. 10 illustrates a Western blot of MCF7 cells treated with vehicle, 5 mM HMBA, or 50 uM 4a1 for 18 h, and processes for analyses of HEXIM1 targets relative to GAPDH.
as §2
To assess the clinical potential of HMBA and 4a1 we need to determine to what extent the targets of HMBA and 4a1 overlap with that of HEXIM1. We focused on direct targets of HEXIM1 that we have identified.

[10] = test system: HEXIM1; settings: in vitro cell cultures; cited from earlier work
[11] = test system: HEXIM1 expression in MCF7/TOTR cells; test: HEXIM1 expression in tamoxifen resistant MCF7/TOTR cells; format: cell-based; settings: 5 mM HMBA or 50 μM 4a1
Method: as §9
as §10, with “expanded. MDA-MB-231 cells were transfected with control or expression vector for Flag-tagged HEXIM1 as previously described.” for “expanded.”
Cell lysates were analyzed by western blot as previously described. […]
as §11

[12] = test system: MCF7 cells; test: Nile red staining of lipid droplets (differentiation marker), MCF7 cells; format: cell-based; settings: 72 hours
Method: as §7, §8

[13] = test system: recruitment of CDK9 to HEXIM1 gene in LNCaP cells; test: ChIP assay, CDK9 recruitment to HEXIM1 gene, LNCaP cells; format: cell-based; settings: 5 mM HMBA or 50 μM 4a1, 90 minutes
Method: as §4, §5, §6

## CC(=O)NCCCCCCNC(C)=O [HMBA, Hexamethylene bis-acetamide, reference compound]
[1]
  p21 expression: induction of p21 expression
[2]
  Recruitment of CDK9 to HEXIM1 gene: induce recruitment of CDK9
[3]
  Half-life: short half-life
  Tissue distribution: poor tissue distribution
[4]
  Cell differentiation (lipid droplets, Nile red): induced differentiation
[5]
  Water solubility: water soluble
[6]
  Sensitivity of TOTR cells to trans-hydroxytamoxifen: enhanced the sensitivity
[7]
  p21 expression: induced p21 expression
[8]
  Toxicity in Phase II clinical trial: dose-dependent toxicity
[9]
  Expression of proteins directly regulated by HEXIM1: regulated expression of proteins
[10]
  Concentrations at which HMBA induces HEXIM1: one to five
[11]
  HEXIM1 expression: induced HEXIM1 expression
[12]
  Cell differentiation (lipid droplets, Nile red): induced differentiation
[13]
  Recruitment of CDK9 to HEXIM1 gene: induce recruitment of CDK9
